Results taken from patent US20190116792A1 (Dow Global Technologies LLC, priority 2016, published 2019).

Tested on: Chlorella sp.
Test: Algal efficacy testing of dry paint film coupons (modified ASTM 5589, 6-well plates)
Type: cell-based, Chlorella sp. ATCC 7516
Conditions: for Total conc, ppm (concentration giving pass level ≥ 75% inhibition): total active ingredient in acrylic/silicone paint, dry film coupon, used as minimum inhibitory concentration for SI
Protocol: These paints were then diluted with a biocide free acrylic/silicone based paint and mixed to prepare targeted concentrations of biocide combinations for the testing. The total biocides concentrations obtained were 125, 250, 500, 1000, 2000 and 5000 ppm. After biocides addition or dilution, the paints were mixed 90 seconds with the horse power shaker (AXEL 75M3372/Agitateur SO-10MI) until uniformity was achieved. […] After one day, the paints were applied to Schleicher & Schuell filter paper at 280 μm wet film thickness and dried for 3 days at room temperature avoiding direct exposure to sunlight. Square discs (1.8 cm×1.8 cm) were cut out from each panel and were used as the substrate for algal efficacy tests. This sample size allowed for an agar border when the sample disc was placed into the well of the test plate.
Algal efficacy was tested according to modified ASTM 5589 which is a standard accelerated test method for determining resistance of various coatings (including paints) to algal defacement. To accommodate for high-throughput screening, this method was scaled down from petri plates to 6-well plates. Bold Modified Basal Freshwater Nutrient Solution was used as growth medium for the algal culture and Bold's agar was used for the efficacy testing. A single coupon was placed with a pair of sterile forceps at the center of the agar plug (on top) with the painted surface facing upwards. The algal inoculum was prepared by diluting an exponentially growing culture of Chlorella sp. to 1×10^6 cfu/ml.
Each well that contains a tested coupon was inoculated with 1750 μl of algal suspension (1×10^6 cfu/ml) making sure that the whole surface (paint film as well as the agar surrounding it) was evenly covered. The plates were incubated at room temp (21° C.-25° C.) with cyclic exposure to 14 hours fluorescent light followed by 10 hours darkness, for a period of three weeks.
At the end of the incubation period the samples were scored for percent inhibition regarding color intensity compared to the blank sample
The SI is calculated based on F. C. Kull et.
SI=Qa/QA+Qb/QB • Qa=the concentration of Antimicrobial A in the blend • QA=the concentration of Antimicrobial A as the only biocide • Qb=the concentration of Antimicrobial B in the blend • QB=the concentration of Antimicrobial B as the only antimicrobial
SI value of <1 in the formula indicates a synergism of the blended biocides exists.
The minimal targeted inhibition was set at 75%, meaning a coupon with at least 75% algal growth inhibition was considered as a pass.

Row | Compound | inhibition at 1000 ppm (504 h) | Total conc, ppm (concentration giving pass level ≥ 75% inhibition) (three weeks) | inhibition at 10000 ppm (504 h, total conc 10000 ppm in paint, three weeks, color intensity vs blank)
1 | O=c1[nH]c2c(c(=O)n1C1CCCCC1)CCC2 [Lenacil, 3-Cyclohexyl-6,7-dihydro-1H-cyclopentapyrimidine-2,4-(3H,5H)-dione] | 90% | 1,000 ppm | 
2 | c1ccc2[nH]c(-c3cscn3)nc2c1 [Thiabendazole, 4-(1H-1,3-benzodiazol-2-yl)-1,3-thiazole] |  | 10000 ppm | 75%
